{"source": "ChEMBL document CHEMBL1128917", "about": "“1-O-, 2-O- and 3-O--glycosyl-sn-glycerols: Structure - anti-tumor-promoting activity relationship” (1996)", "assay_type_in_all_cases": "functional, Homo sapiens", "key": {"[1]": {"system": "Raji", "experiment": "Tested in vitro for inhibitory activity against TPA induced Epstein-Barr virus antigen activation in Raji cells (1000 mol) for positive control"}, "[2]": {"system": "Raji", "experiment": "Tested in vitro for inhibitory activity against TPA induced Epstein-Barr virus antigen activation in Raji cells (100 mol) for positive control"}, "[3]": {"system": "Raji", "experiment": "Tested in vitro for inhibitory activity against TPA induced Epstein-Barr virus antigen activation in Raji cells (10 mol) for positive control"}, "[4]": {"system": "Raji", "experiment": "Tested in vitro for inhibitory activity against TPA induced Epstein-Barr virus antigen activation in Raji cells (500 mol) for positive control"}, "[5]": {"system": "Raji", "experiment": "Tested in vitro for inhibitory activity against TPA induced Epstein-Barr virus antigen activation in Raji cells (1000 mol) for viability"}}, "data": [{"smiles": "CO[C@@H]1O[C@H](CO)[C@H](O)[C@H](O)[C@H]1O", "values": [{"measurement": "EBV antigen activation, % of positive control", "setting": "[1]", "value": 20.3, "unit": "%"}, {"measurement": "EBV antigen activation, % of positive control", "setting": "[2]", "value": 76.5, "unit": "%"}, {"measurement": "EBV antigen activation, % of positive control", "setting": "[3]", "value": 93.7, "unit": "%"}, {"measurement": "EBV-EA activation (% of positive control)", "setting": "[4]", "value": 43.9, "unit": "%"}, {"measurement": "Viability", "setting": "[5]", "value": 80, "unit": "%"}]}, {"smiles": "CO[C@@H]1O[C@H](CO)C(O)C(O)[C@H]1O", "note": "(single isomer, unassigned)", "values": [{"measurement": "EBV antigen activation, % of positive control", "setting": "[1]", "value": 22.8, "unit": "%"}, {"measurement": "EBV antigen activation, % of positive control", "setting": "[2]", "value": 70.7, "unit": "%"}, {"measurement": "EBV antigen activation, % of positive control", "setting": "[3]", "value": 100, "unit": "%"}, {"measurement": "EBV-EA activation (% of positive control)", "setting": "[4]", "value": 54.1, "unit": "%"}, {"measurement": "Viability", "setting": "[5]", "value": 70, "unit": "%"}]}, {"smiles": "OCC(O)CO[C@@H]1O[C@@H](CO)[C@@H](O)[C@H](O)[C@@H]1O", "note": "(stereo in doubt; form 1)", "values": [{"measurement": "EBV antigen activation, % of positive control", "setting": "[1]", "value": 0, "unit": "%"}, {"measurement": "EBV antigen activation, % of positive control", "setting": "[2]", "value": 62.4, "unit": "%"}, {"measurement": "EBV antigen activation, % of positive control", "setting": "[3]", "value": 82.5, "unit": "%"}, {"measurement": "EBV-EA activation (% of positive control)", "setting": "[4]", "value": 20.7, "unit": "%"}, {"measurement": "Viability", "setting": "[5]", "value": 70, "unit": "%"}]}, {"smiles": "CC(=O)OCC(CO)O[C@@H]1O[C@@H](CO)[C@@H](O)[C@H](O)[C@@H]1O", "note": "(stereo in doubt; form 1)", "values": [{"measurement": "EBV antigen activation, % of positive control", "setting": "[2]", "value": 71.5, "unit": "%"}, {"measurement": "EBV antigen activation, % of positive control", "setting": "[3]", "value": 94.7, "unit": "%"}, {"measurement": "EBV-EA activation (% of positive control)", "setting": "[4]", "value": 32.9, "unit": "%"}]}, {"smiles": "OCC(CO)O[C@@H]1O[C@@H](CO)[C@H](O)[C@H](O)[C@@H]1O", "note": "(stereo in doubt; form 1)", "values": [{"measurement": "EBV antigen activation, % of positive control", "setting": "[2]", "value": 81, "unit": "%"}, {"measurement": "EBV-EA activation (% of positive control)", "setting": "[4]", "value": 45.8, "unit": "%"}, {"measurement": "Viability", "setting": "[5]", "value": 70, "unit": "%"}]}, {"smiles": "OCC(O)CO[C@@H]1O[C@@H](CO)[C@H](O)[C@H](O)[C@@H]1O", "note": "(stereo in doubt; form 1)", "values": [{"measurement": "EBV antigen activation, % of positive control", "setting": "[2]", "value": 58.2, "unit": "%"}, {"measurement": "EBV antigen activation, % of positive control", "setting": "[3]", "value": 79.1, "unit": "%"}, {"measurement": "EBV-EA activation (% of positive control)", "setting": "[4]", "value": 16.5, "unit": "%"}]}, {"smiles": "OCC(O)CO[C@@H]1O[C@@H](CO)[C@@H](O)[C@H](O)[C@@H]1O", "note": "(stereo in doubt; form 2)", "values": [{"measurement": "EBV antigen activation, % of positive control", "setting": "[2]", "value": 68.9, "unit": "%"}, {"measurement": "EBV antigen activation, % of positive control", "setting": "[3]", "value": 90.4, "unit": "%"}, {"measurement": "EBV-EA activation (% of positive control)", "setting": "[4]", "value": 27.4, "unit": "%"}]}, {"smiles": "CC(=O)OCC(CO)O[C@@H]1O[C@@H](CO)[C@@H](O)[C@H](O)[C@@H]1O", "note": "(stereo in doubt; form 2)", "values": [{"measurement": "EBV antigen activation, % of positive control", "setting": "[1]", "value": 0, "unit": "%"}, {"measurement": "EBV antigen activation, % of positive control", "setting": "[2]", "value": 77.3, "unit": "%"}, {"measurement": "EBV antigen activation, % of positive control", "setting": "[3]", "value": 100, "unit": "%"}, {"measurement": "EBV-EA activation (% of positive control)", "setting": "[4]", "value": 36.6, "unit": "%"}, {"measurement": "Viability", "setting": "[5]", "value": 70, "unit": "%"}]}, {"smiles": "OCC(CO)O[C@@H]1O[C@@H](CO)[C@H](O)[C@H](O)[C@@H]1O", "note": "(stereo in doubt; form 2)", "values": [{"measurement": "EBV antigen activation, % of positive control", "setting": "[1]", "value": 0, "unit": "%"}, {"measurement": "EBV antigen activation, % of positive control", "setting": "[2]", "value": 88.1, "unit": "%"}, {"measurement": "EBV antigen activation, % of positive control", "setting": "[3]", "value": 100, "unit": "%"}, {"measurement": "EBV-EA activation (% of positive control)", "setting": "[4]", "value": 17.5, "unit": "%"}, {"measurement": "Viability", "setting": "[5]", "value": 80, "unit": "%"}]}, {"smiles": "OCC(O)CO[C@@H]1O[C@@H](CO)[C@H](O)[C@H](O)[C@@H]1O", "note": "(stereo in doubt; form 2)", "values": [{"measurement": "EBV antigen activation, % of positive control", "setting": "[1]", "value": 0, "unit": "%"}, {"measurement": "EBV antigen activation, % of positive control", "setting": "[2]", "value": 64.6, "unit": "%"}, {"measurement": "EBV antigen activation, % of positive control", "setting": "[3]", "value": 87.5, "unit": "%"}, {"measurement": "EBV-EA activation (% of positive control)", "setting": "[4]", "value": 25.8, "unit": "%"}, {"measurement": "Viability", "setting": "[5]", "value": 70, "unit": "%"}]}]}
